Measurements from patent US6787141B1, “Peptide having for fibrinogen fragment E activity, analogs, antibodies and uses thereof” (The University Court of The University of Aberdeen, priority 1999, dated 2004).

B1: fibrin fragment E: fibrin fragment E, labelled with digoxygenin ester for detection (protein)
chain 1: GPRVVERHQSACKDSDWPFCSDEDWNYKCPSGCRMKGLIDEVNQDFTNRINKLKNSLFEYQK
chain 2: GHRPLDKKREEAPSLRPAPPPISGGGYRARPAKAAATQKKVERKAPDAGGCLHADPDLGVLCPTGCQLQEALLQQERPIRNSVDELNNNVEAVSQTSSSSFQYMYLLK
chain 3: YVATRDNCCILDERFGSYCPTTCGIADFLSTYQTKVDKDLQSLEDILHQVENKTSEVKQLIK

What was measured:
[1] = tested on: chick chorioallantoic membrane (CAM); assay: chick chorioallantoic membrane (CAM) cell proliferation assay (DNA synthesis, tritiated thymidine); format: in vivo
Protocol: Cell proliferation was measured using the chick chorioallantoic membrane (CAM) model as described previously (4, 29, 30).The assay used is based on quantitative measurement of DNA synthesis in the CAM after exposure to control and test substances 18 h after application in liquid form to the whole “dropped” area of each CAM (4, 29). This assay is a measure of changes in CAM vascularity (30).
The rabbit and rat antisera were mixed with active fibrin degradation products. These were applied to the chick CAM with a positive control (fibrin degradation products) and a negative control (the antibody alone). The CAM was processed for incorporation of tritiated thymidine.
The rabbit antisera were then tested for ability to block the stimulatory activity of human FDP on the chick CAM model. The assay used was based on quantitative measurement of DNA synthesis in the CAM after exposure to control and test substances 18 h after application in liquid form to the whole “dropped” area of each CAM (4,29). This assay is a measure of changes in CAM vascularity (30). Anti phage antisera, raised by relatively short term immunisation of rabbits, were used at a 1/2 dilution and admixed with FDP used at a concentration of approximately 1.95 mg/ml diluted before use to 1/10. Controls included buffer only and antiserum only groups of CAMs. After filter sterilisation, 0.3 ml was added onto each CAM dropped surface.

[2] = tested on: Chick fibroblasts; assay: cell immunohistochemistry; format: cell-based; conditions: 2 hours exposure
Protocol: Chick fibroblasts were cultured in a 25 cm^2 flask (Nunc) until confluent (approximately 3×10^6 cells). The cells were washed in PBS and then trypsinised and diluted to 3×10^5 cells per ml in Dulbecco modified medium with 10% foetal calf serum. […] of the cells suspension was plated into each well of a Nunc culture well slide. The cells were incubated overnight to allow adhesion and recovery from the passaging. Digoxygenin labelled fibrin fragment E was added to a final concentration of 8 mg per ml. Control wells contained unconjugated digoxygenin and PBS.
The cells were rinsed after 2 hours with PBS then washed 3 times in TBS followed by one wash in distilled water. The cells were then incubated for 2 hours with sheep anti-digoxygenin alkaline phosphatase. The slides were then washed three times in TBS and developed with NBT and BCIP in bicarbonate buffer pH 9.8. The slides were air dried and then mounted for observation of membrane staining under the microscope.

[3] = tested on: Chick fibroblasts, Cos7, mouse 3T3 and human embryonic lung cells (HEL); assay: cell binding assays; format: cell-based; conditions: each of the cell types; 6 hours at 37° C.
Protocol: Chick fibroblasts, Cos7, mouse 3T3 and human embryonic lung cells (HEL) were cultured in a 25 cm^2 flask (Nunc) until confluent (approximately 3×10^6 cells). The cells were trypsinised and resuspended at concentration of 1.3×10^5 cells/ml. 200 μl of this cell suspension was added to each well of a 96 well culture plate (Nunc). The cells were incubated overnight at 37° C. to allow adherence and recovery. The cells were then divided into three sections, digoxygenin controls, PBS controls and digoxygenin labelled fragment E tests. Increasing concentrations of digoxygenin and digoxygenin labelled fibrin fragment E were applied from 0-30 mg per well. The plates were incubated for 6 hours at 37° C. under culture conditions.
The plates were emptied of media and washed three times with PBS. The cells were then incubated for 2 hours with sheep antidigoxygenin alkaline phosphatase and developed with p-nitrophenyl phosphate in bicarbonate buffer pH 9.8. The plates were read on a Titertek Multiscan plate reader at 405 nm.

| Molecule | inhibition of the stimulatory effect of FDP ([1]; FIG. 4 legend, concentration not given) | inhibition of FDP induced cell proliferation ([1]; peptide at 7.5 μg/ml) | inhibition of FDP induced cell proliferation ([1]; peptide at 15 μg/ml) | binding to cells (membrane staining) [2] | binding to cells (absorbance at 405 nm compared to control preparations) [3] |
| --- | --- | --- | --- | --- | --- |
| CRAHSFGSPRPLPVV [WTM110] | inhibits | little inhibition | inhibition was demonstrated with cell proliferation reduced to control level |  |  |
| B1 |  |  |  | shown to bind | high absorbance |
